Measurements as given in PubChem BioAssay AID1919013 (Molecular Pharmacology Branch, DTP, NCI, 2023).

Test system: LG0703-F498-PDC complex spheroid growth
Assay: Anticancer human tumor LG0703-F498-PDC patient-derived lung adenocarcinoma cell line growth inhibition [AhR]
Conditions: for IC50: curve of first compound; for viability, T/C: stronger effect = lower value
In short: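 Complex tumor spheroids co-cultured with HUVEC and human MSC stroma; AhR antagonists tested in combination with standard-of-care and investigational agents. Top concentration at or near clinical Cmax (else 10 microM), half-log dilutions; growth expressed as percent test/control.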

[1] = second compound 0.1 µM, first compound 0.0316 µM
[2] = second compound 0.1 µM, first compound 0.1 µM
[3] = second compound 0.1 µM, first compound 0.316 µM
[4] = second compound 0.1 µM, first compound 1 µM
[5] = second compound 0.1 µM, first compound 3.16 µM
[6] = second compound 0.1 µM, first compound 10 µM
[7] = second compound 0.316 µM, first compound 0.0316 µM
[8] = second compound 0.316 µM, first compound 0.1 µM
[9] = second compound 0.316 µM, first compound 0.316 µM
[10] = second compound 0.316 µM, first compound 1 µM
[11] = second compound 0.316 µM, first compound 3.16 µM
[12] = second compound 0.316 µM, first compound 10 µM
[13] = second compound 1 µM, first compound 0.0316 µM
[14] = second compound 1 µM, first compound 0.1 µM
[15] = second compound 1 µM, first compound 0.316 µM
[16] = second compound 1 µM, first compound 1 µM
[17] = second compound 1 µM, first compound 3.16 µM
[18] = second compound 1 µM, first compound 10 µM
[19] = second compound 3.16 µM, first compound 0.0316 µM
[20] = second compound 3.16 µM, first compound 0.1 µM
[21] = second compound 3.16 µM, first compound 0.316 µM
[22] = second compound 3.16 µM, first compound 1 µM
[23] = second compound 3.16 µM, first compound 3.16 µM
[24] = second compound 3.16 µM, first compound 10 µM
[25] = second compound 10 µM, first compound 0.0316 µM
[26] = second compound 10 µM, first compound 0.1 µM
[27] = second compound 10 µM, first compound 0.316 µM
[28] = second compound 10 µM, first compound 1 µM
[29] = second compound 10 µM, first compound 3.16 µM
[30] = second compound 10 µM, first compound 10 µM
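Also: luminescence taken as a proxy for viable cell amount.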
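For viability, T/C in this document: percent of DMSO vehicle control where 100% means growth equal to vehicle.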

Molecule `CC(C)CC(NC(=O)C(Cc1ccccc1)NC(=O)c1cnccn1)B(O)O` (stereo not given) + Cc1ccccc1N=Nc1ccc(NC(=O)c2ccnn2C)c(C)c1 has an IC50 (second compound 0.1 µM) of 5.15 nM, an IC50 (second compound 0.316 µM) of 5 nM and an IC50 (second compound 1 µM) of 5.26 nM. For the same molecule, the IC50 (second compound 3.16 µM) was 5 nM, the IC50 (second compound 10 µM) was 5.1 nM and the viability, T/C (second compound 0.1 µM, first compound 0.000949 µM) was 101%. For the same molecule, the viability, T/C (second compound 0.1 µM, first compound 0.003 µM) was 85.3%, the viability, T/C (second compound 0.1 µM, first compound 0.00949 µM) was 10% and the viability, T/C (second compound 0.1 µM, first compound 0.03 µM) was 0.56%. It also gave a viability, T/C (second compound 0.1 µM, first compound 0.0949 µM) of 0.28%, a viability, T/C (second compound 0.1 µM, first compound 0.3 µM) of 0.18% and a viability, T/C (second compound 0.316 µM, first compound 0.000949 µM) of 95.2%. For the same molecule, the viability, T/C (second compound 0.316 µM, first compound 0.003 µM) was 80%, the viability, T/C (second compound 0.316 µM, first compound 0.00949 µM) was 12.3% and the viability, T/C (second compound 0.316 µM, first compound 0.03 µM) was 0.81%. The viability, T/C (second compound 0.316 µM, first compound 0.0949 µM) was 0.11%, the viability, T/C (second compound 0.316 µM, first compound 0.3 µM) was 0.12% and the viability, T/C (second compound 1 µM, first compound 0.000949 µM) was 85.1%. It also gave a viability, T/C (second compound 1 µM, first compound 0.003 µM) of 85.8%, a viability, T/C (second compound 1 µM, first compound 0.00949 µM) of 12.8% and a viability, T/C (second compound 1 µM, first compound 0.03 µM) of 0.76%. It also gave a viability, T/C (second compound 1 µM, first compound 0.0949 µM) of 0.13%, a viability, T/C (second compound 1 µM, first compound 0.3 µM) of 0.17% and a viability, T/C (second compound 3.16 µM, first compound 0.000949 µM) of 86.9%. For the same molecule, the viability, T/C (second compound 3.16 µM, first compound 0.003 µM) was 78%, the viability, T/C (second compound 3.16 µM, first compound 0.00949 µM) was 14.8% and the viability, T/C (second compound 3.16 µM, first compound 0.03 µM) was 1.06%. For the same molecule, the viability, T/C (second compound 3.16 µM, first compound 0.0949 µM) was 0.16%, the viability, T/C (second compound 3.16 µM, first compound 0.3 µM) was 0.29% and the viability, T/C (second compound 10 µM, first compound 0.000949 µM) was 82%. It also gave a viability, T/C (second compound 10 µM, first compound 0.003 µM) of 81.3%, a viability, T/C (second compound 10 µM, first compound 0.00949 µM) of 13.5% and a viability, T/C (second compound 10 µM, first compound 0.03 µM) of 1.28%. For the same molecule, the viability, T/C (second compound 10 µM, first compound 0.0949 µM) was 0.3% and the viability, T/C (second compound 10 µM, first compound 0.3 µM) was 0.39%.

`COc1cc(Nc2ncc3c(n2)-c2ccc(Cl)cc2C(c2c(F)cccc2OC)=NC3)ccc1C(=O)O` + Cc1ccccc1N=Nc1ccc(NC(=O)c2ccnn2C)c(C)c1 was tested, and the IC50 (second compound 0.1 µM) was greater than 10000 nM, the IC50 (second compound 0.316 µM) was 5360 nM and the IC50 (second compound 1 µM) was 6050 nM. The IC50 (second compound 3.16 µM) was 4050 nM, the IC50 (second compound 10 µM) was 5020 nM and the viability, T/C [1] was 93.2%. For the same molecule, the viability, T/C [2] was 79.5%, the viability, T/C [3] was 60.5% and the viability, T/C [4] was 68.5%. It also gave a viability, T/C [5] of 67.9%, a viability, T/C [6] of 45.3% and a viability, T/C [7] of 84.4%. The viability, T/C [8] was 82.2%, the viability, T/C [9] was 70.9% and the viability, T/C [10] was 74%. For the same molecule, the viability, T/C [11] was 57.7%, the viability, T/C [12] was 39.7% and the viability, T/C [13] was 86.6%. It also gave a viability, T/C [14] of 82.6%, a viability, T/C [15] of 65.4% and a viability, T/C [16] of 65.3%. For the same molecule, the viability, T/C [17] was 54.2%, the viability, T/C [18] was 46% and the viability, T/C [19] was 73.9%. The viability, T/C [20] was 71.8%, the viability, T/C [21] was 61.3% and the viability, T/C [22] was 62.5%. The viability, T/C [23] was 53.8%, the viability, T/C [24] was 40.8% and the viability, T/C [25] was 70.9%. For the same molecule, the viability, T/C [26] was 61.5%, the viability, T/C [27] was 62.5% and the viability, T/C [28] was 70.4%. The viability, T/C [29] was 55.7% and the viability, T/C [30] was 38%.

With `NS(=O)(=O)OCC1CC(n2ccc3c(NC4CCc5ccccc54)ncnc32)CC1O` (stereo not given) + Cc1ccccc1N=Nc1ccc(NC(=O)c2ccnn2C)c(C)c1 the IC50 (second compound 0.1 µM) was 7520 nM, the IC50 (second compound 0.316 µM) was 6760 nM and the IC50 (second compound 1 µM) was 3060 nM. The IC50 (second compound 3.16 µM) was 1080 nM, the IC50 (second compound 10 µM) was 1310 nM and the viability, T/C [1] was 100%. For the same molecule, the viability, T/C [2] was 94.1%, the viability, T/C [3] was 97.9% and the viability, T/C [4] was 90.8%. It also gave a viability, T/C [5] of 64.4%, a viability, T/C [6] of 45.2% and a viability, T/C [7] of 102%. For the same molecule, the viability, T/C [8] was 99.8%, the viability, T/C [9] was 103% and the viability, T/C [10] was 81.7%. It also gave a viability, T/C [11] of 68.5%, a viability, T/C [12] of 41% and a viability, T/C [13] of 96%. The viability, T/C [14] was 102%, the viability, T/C [15] was 99% and the viability, T/C [16] was 74.4%. For the same molecule, the viability, T/C [17] was 51.5%, the viability, T/C [18] was 38.4% and the viability, T/C [19] was 93.2%. For the same molecule, the viability, T/C [20] was 99.6%, the viability, T/C [21] was 67% and the viability, T/C [22] was 55.6%. The viability, T/C [23] was 42.1%, the viability, T/C [24] was 39.6% and the viability, T/C [25] was 100%. It also gave a viability, T/C [26] of 82.7%, a viability, T/C [27] of 63.7% and a viability, T/C [28] of 54.5%. The viability, T/C [29] was 41.4% and the viability, T/C [30] was 32%.

Work on `Nc1ccccc1NC(=O)c1ccc(CNC(=O)OCc2cccnc2)cc1` + Cc1ccccc1N=Nc1ccc(NC(=O)c2ccnn2C)c(C)c1 yielded an IC50 (second compound 0.1 µM) of 1140 nM, an IC50 (second compound 0.316 µM) of 895 nM and an IC50 (second compound 1 µM) of 1080 nM. For the same molecule, the IC50 (second compound 3.16 µM) was 940 nM, the IC50 (second compound 10 µM) was 1390 nM and the viability, T/C [1] was 89.8%. For the same molecule, the viability, T/C [2] was 95.3%, the viability, T/C [3] was 88.6% and the viability, T/C [4] was 54%. It also gave a viability, T/C [5] of 13.7%, a viability, T/C [6] of 1.74% and a viability, T/C [7] of 103%. The viability, T/C [8] was 93.3%, the viability, T/C [9] was 78.7% and the viability, T/C [10] was 48.4%. The viability, T/C [11] was 14.3%, the viability, T/C [12] was 1.58% and the viability, T/C [13] was 87.8%. For the same molecule, the viability, T/C [14] was 78.3%, the viability, T/C [15] was 77.3% and the viability, T/C [16] was 53%. It also gave a viability, T/C [17] of 15.2%, a viability, T/C [18] of 2.52% and a viability, T/C [19] of 73.9%. It also gave a viability, T/C [20] of 75.5%, a viability, T/C [21] of 69.3% and a viability, T/C [22] of 48%. For the same molecule, the viability, T/C [23] was 20%, the viability, T/C [24] was 3.32% and the viability, T/C [25] was 76.8%. The viability, T/C [26] was 88.6%, the viability, T/C [27] was 79.4% and the viability, T/C [28] was 54.3%. It also gave a viability, T/C [29] of 32.1% and a viability, T/C [30] of 10.9%.

In the case of `O=C(C=Cc1cccc(S(=O)(=O)Nc2ccccc2)c1)NO` + Cc1ccccc1N=Nc1ccc(NC(=O)c2ccnn2C)c(C)c1, the IC50 (second compound 0.1 µM) is reported as 828 nM, the IC50 (second compound 0.316 µM) is reported as 809 nM and the IC50 (second compound 1 µM) is reported as 921 nM. It also gave an IC50 (second compound 3.16 µM) of 901 nM, an IC50 (second compound 10 µM) of 1280 nM and a viability, T/C [1] of 106%. The viability, T/C [2] was 123%, the viability, T/C [3] was 84% and the viability, T/C [4] was 43.9%. For the same molecule, the viability, T/C [5] was 12.4%, the viability, T/C [6] was 2.33% and the viability, T/C [7] was 110%. For the same molecule, the viability, T/C [8] was 99.7%, the viability, T/C [9] was 81.6% and the viability, T/C [10] was 42.9%. The viability, T/C [11] was 13.5%, the viability, T/C [12] was 2.43% and the viability, T/C [13] was 122%. For the same molecule, the viability, T/C [14] was 111%, the viability, T/C [15] was 83.9% and the viability, T/C [16] was 50.4%. It also gave a viability, T/C [17] of 12.6%, a viability, T/C [18] of 2.97% and a viability, T/C [19] of 97.2%. It also gave a viability, T/C [20] of 113%, a viability, T/C [21] of 86.5% and a viability, T/C [22] of 44.8%. For the same molecule, the viability, T/C [23] was 17.8%, the viability, T/C [24] was 2.8% and the viability, T/C [25] was 103%. It also gave a viability, T/C [26] of 101%, a viability, T/C [27] of 74.7% and a viability, T/C [28] of 60.3%. The viability, T/C [29] was 25.9% and the viability, T/C [30] was 6.34%.
